Assay results: patent US20070134281A1, “Investigate the potential of using beetle odours to deter slugs in vining peas” (priority 2004, published 2007)
Like-named read-outs stand apart in the source and are kept apart here.

Experiments:
[1] = system: Deroceras reticulatum slugs; assay: Glasshouse study of slug feeding damage on growing pea plants; format: in vivo; details: 2nd day of test
Description: A suitable experimental design had to be substituted for this glasshouse study, based on the principles to show avoidance behaviour. This was also remarkably achieved on a five point scale to record slug behaviour, under a simple experimental procedure which lasted for only five days, to conclude this semi-field trial just by using the existing facilities alone at […] Housewares Ltd who manufactured their items for supermarket sale, provided plastic bowls in different colours to suit a random style experiment to show this current field study inside the glasshouse. Whifford Plastics Ltd produced fluon, a test chemical which had been used before to stop slugs from escaping the planned experiment in Cardiff University, was sold in litres sufficient to cover the sides of these plastic bowls by using only a simple paint brush. F. A Smith a soil merchant supplying for Cardiff University Horticultural services at Talybont, produced John Innes Potting compost No 2 commonly used in a nursery for growing peas, ideally because the sterilised soil with peat and grit added has a base fertiliser for quick germination. […] To keep the peas nice and damp and the slugs happy, the multipurpose peat based compost from the local B&Q store was adequate to support the trays of peas inside the plastic bowls which was 2⁄3 filled with this moist peat and the tray positioned so that the rim is flush with the surface of the peat. All the slugs used in this experiment were collected from the fields around Talybont, where they were actively seen to be searching for food lurking under the plants during the early hours of the morning at sunrise and pre-starved for a further 24 hours at 15° C., 80% RH, 12 hour light: dark regime, prior to testing inside the glasshouse. These were also the same species of slugs causing contamination during the routine operation in […] has a latin name Deroceras reticulatum, already well known for its physical damage to other crops under use in the UK. […]

[2] = system: Deroceras reticulatum slugs; assay: Petri dish choice test (control and test sector) with test solutions made from commercial organic acids; format: in vivo; details: 24 hour period, n=10 replicates, laboratory
Procedure: Next, using the results obtained from Mass spectrometry to make up the test solutions with these organic acids, the behaviour of the slugs in the presence of beetle odours was now investigated. Initially this test was carried out inside the laboratory in the manner previously shown for pygidial secretions using a control and test sector to show the slug's choice overnight within a petri dish. […] However the results of all these tests still remains to be analysed and will appear in the PhD thesis only after using a computer software for image analysis.

[3] = cited from earlier work

Row | Structure (SMILES) | Feeding damage by slugs on growing pea plants [1] | Avoidance of treated area (proportion of total area of petri dish covered by slug trails) [2] | Solubility in water ([3]; 20° C.) | Solubility in water ([3]; cold water) | Solubility in water ([3]; hot water)
1 | CC(=O)O [Acetic Acid] | Concern |  |  |  | 
2 | O=CO [Formic Acid] |  | scare slugs stiff |  |  | 
3 | C=C(C)C(=O)O [Methacrylic Acid] | damage was effectively reduced |  | 9.7 g/100 ml (20° C.) |  | 
4 | C/C=C(\C)C(=O)O [Tiglic Acid] | Concern |  |  | sparingly | soluble
